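Results reflect a 48-hour exposure of cells in 96-well plates to compound at five concentrations. GI50: concentration for 50% inhibition of growth.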 Active and inactive are the calls of the source. No stated cut-off is given here; in the data, active = GI50 up to about 1.1 µM and inactive = higher.
How the values were obtained:
Assay in all cases: NCI anticancer screen, dose series, 48 h
[1] = test system: UACC-257
[2] = test system: Malme-3M
[3] = test system: OVCAR-4
[4] = test system: CCRF-CEM
[5] = test system: UO-31
[6] = test system: KM12
[7] = test system: HL-60
[8] = test system: NCI-H460
[9] = test system: IGROV-1
[10] = test system: HCT-116
[11] = test system: A549
[12] = test system: OVCAR-3
[13] = test system: COLO 205
[14] = test system: SNB-19
[15] = test system: NCI-H522
[16] = test system: RXF 393
[17] = test system: EKVX

Measured: GI50

Cc1cc2occ(-c3ccc(Cl)cc3)c2c(=O)o1
inactive: [1] > 100 µM | [2] > 100 µM | [3] > 100 µM | [4] > 100 µM | [5] 58.1 µM | [6] > 100 µM | [7] > 100 µM | [8] > 100 µM | [9] > 100 µM | [10] > 100 µM | [11] > 100 µM | [12] > 100 µM | [13] > 100 µM | [14] > 100 µM | [15] 66.5 µM | [16] > 100 µM | [17] > 100 µM

CC(=O)OC1CCC2C(=CCC3C2(C)C(=O)CC2(C)C(C4(C)OC(C(C)C)=CC4=O)C(O)CC32C)C1(C)C (centres undefined)
inactive: [2] 21.5 µM | [4] 31 µM | [5] 40.3 µM | [6] > 10 µM | [8] 27 µM | [9] 62.4 µM | [10] > 10 µM | [11] 31.6 µM | [12] > 10 µM | [13] 56 µM | [14] > 100 µM | [15] 35.5 µM | [17] 57.3 µM

N#CC(C(=O)C(=O)Nc1c(Cl)cccc1Cl)c1ccccc1 (centres undefined)
inactive: [1] > 10 µM | [2] > 10 µM | [3] > 10 µM | [4] > 10 µM | [5] > 10 µM | [6] > 10 µM | [7] > 10 µM | [8] > 10 µM | [9] > 10 µM | [10] > 10 µM | [11] > 10 µM | [12] > 10 µM | [13] > 10 µM | [14] > 10 µM | [15] > 10 µM | [16] > 10 µM | [17] > 10 µM

CC(=O)OC12C(C)=C(C)C(=O)N1c1ccccc1N2C(C)=O (centres undefined)
inactive: [1] > 100 µM | [3] > 100 µM | [4] > 100 µM | [5] > 100 µM | [6] > 100 µM | [7] > 100 µM | [8] > 100 µM | [9] > 100 µM | [10] > 100 µM | [11] > 100 µM | [12] > 100 µM | [13] > 100 µM | [14] > 100 µM | [15] > 100 µM | [16] > 100 µM | [17] > 100 µM

Cc1cc(C)nc(NS(=O)(=O)c2ccc(Nc3c4ccccc4nc4c(C(=O)Nc5ccc(S(N)(=O)=O)cc5)cccc34)cc2)n1
inactive: [1] > 100 µM | [2] > 100 µM | [3] 85.5 µM | [4] > 100 µM | [5] 37 µM | [6] 63.7 µM | [8] 88.1 µM | [9] > 100 µM | [10] 83.8 µM | [11] > 100 µM | [12] 66.5 µM | [13] > 100 µM | [14] 47 µM | [15] 30.8 µM | [16] 38 µM | [17] 35.1 µM

CC(O)C(NC(=O)c1ccccc1)C(=O)N(Cc1ccccc1)Cc1ccccc1 (centres undefined)
inactive: [1] 80.4 µM | [2] > 100 µM | [3] > 100 µM | [4] > 100 µM | [5] > 100 µM | [6] > 100 µM | [7] 18.9 µM | [8] > 100 µM | [9] > 100 µM | [11] 80.9 µM | [12] > 100 µM | [13] > 100 µM | [14] > 100 µM | [15] 7.03 µM | [17] > 100 µM

CC1OC(CC2C=CCc3c(O)c4c(c(O)c32)C(=O)c2ccccc2C4=O)CC(NC(=O)C(F)(F)F)C1O (centres undefined)
inactive: [1] 7.93 µM | [2] 3.12 µM | [3] 2.79 µM | [4] 5.11 µM | [5] 20 µM | [6] 15.9 µM | [7] 11.8 µM | [8] 5.25 µM | [9] 18.9 µM | [10] 3.13 µM | [12] 6.76 µM | [13] 13.8 µM | [14] 4.86 µM | [15] 18.1 µM | [16] 2.52 µM | [17] 12.6 µM

c1ccc(C(c2ccccc2)c2ccncc2)cc1
inactive: [1] 61 µM | [2] > 100 µM | [3] > 100 µM | [4] > 100 µM | [5] 69.5 µM | [6] > 100 µM | [8] > 100 µM | [9] > 100 µM | [10] > 100 µM | [11] > 100 µM | [12] > 100 µM | [13] > 100 µM | [14] > 100 µM | [17] > 100 µM

Cc1c(-c2coc(-c3ccc(Cl)cc3)n2)c(=O)n(-c2ccccc2)n1C
inactive: [1] > 100 µM | [2] > 100 µM | [3] > 100 µM | [4] > 100 µM | [5] > 100 µM | [6] > 100 µM | [7] > 100 µM | [8] > 100 µM | [9] > 100 µM | [10] > 100 µM | [11] > 100 µM | [12] 93.3 µM | [13] > 100 µM | [15] > 100 µM | [17] > 100 µM

OC1(C(Sc2ccccc2)Sc2ccccc2)CCCCCC1
inactive: [1] 26.9 µM | [3] 6.19 µM | [4] 25.2 µM | [5] 3.13 µM | [6] 34.9 µM | [7] 24 µM | [8] 28.2 µM | [10] 27.8 µM | [11] 28 µM | [12] 20.9 µM | [13] 23.6 µM | [14] 14.1 µM | [15] 11.5 µM | [16] > 10 µM | [17] 21.2 µM

Cc1ccccc1NC(=O)C(=O)C(C(=O)c1ccccc1F)C1OC(=O)c2ccccc21 (centres undefined)
inactive: [1] 21.1 µM | [2] 18.8 µM | [3] 18.4 µM | [4] 10.6 µM | [5] 15.8 µM | [6] 23 µM | [7] 16.3 µM | [8] 32.9 µM | [10] 15 µM | [11] 42.2 µM | [12] 24.6 µM | [13] 21.3 µM | [14] 10.1 µM | [15] 5.68 µM | [16] 8.53 µM | [17] 96.6 µM

CCc1cccc(C(C)C)c1NC(=O)CCl
inactive: [1] > 100 µM | [2] > 100 µM | [4] 37.1 µM | [5] > 100 µM | [6] > 100 µM | [7] 22.4 µM | [9] > 100 µM | [10] > 100 µM | [11] > 100 µM | [12] > 100 µM | [14] 28.1 µM | [15] 35.6 µM | [17] > 100 µM

CC(C)(C)c1ccc(OCCOCCOc2ccc(C(C)(C)C)cc2S(=O)(=O)Nc2ccc([N+](=O)[O-])cc2)c(S(=O)(=O)Nc2ccc([N+](=O)[O-])cc2)c1
inactive: [1] 42.1 µM | [2] 83.9 µM | [3] 33.7 µM | [4] 5.42 µM | [5] 4.45 µM | [6] 7.53 µM | [7] 5.58 µM | [8] 8.85 µM | [9] 12.7 µM | [10] 4.86 µM | [11] 4.42 µM | [12] 7.43 µM | [13] 21.8 µM | [14] 76.4 µM | [16] 19.2 µM | [17] 62.5 µM
